The text below walks through data of ChEMBL document CHEMBL4138190, “Anti-amyloidogenic and anti-apoptotic effect of α-bisabolol against Aβ induced neurotoxicity in PC12 cells” (Eur J Med Chem, 2018).

In test [1] the target is Acetylcholinesterase (Homo sapiens, UniProt P22303). Description: Inhibition of AChE (unknown origin) preincubated for 45 mins followed by ATCI substrate addition measured for 3 mins.
For test [2], the target named is Amyloid-beta precursor protein (Homo sapiens) (UniProt P05067). Description: Inhibition of amyloid beta (25 to 35 residues) (unknown origin)-induced toxicity in rat PC12 cells assessed as increase in cell viability at 2 to 10 ug/ml preincubated for 2 hrs followed by amyloid beta (25 to 35 residues) addition measured after 24 hrs by MTT dye based light microscopic assay (reference value: 48%).
Chain of Amyloid-beta precursor protein (Homo sapiens) (P05067 whole entry, the tested form may be a part): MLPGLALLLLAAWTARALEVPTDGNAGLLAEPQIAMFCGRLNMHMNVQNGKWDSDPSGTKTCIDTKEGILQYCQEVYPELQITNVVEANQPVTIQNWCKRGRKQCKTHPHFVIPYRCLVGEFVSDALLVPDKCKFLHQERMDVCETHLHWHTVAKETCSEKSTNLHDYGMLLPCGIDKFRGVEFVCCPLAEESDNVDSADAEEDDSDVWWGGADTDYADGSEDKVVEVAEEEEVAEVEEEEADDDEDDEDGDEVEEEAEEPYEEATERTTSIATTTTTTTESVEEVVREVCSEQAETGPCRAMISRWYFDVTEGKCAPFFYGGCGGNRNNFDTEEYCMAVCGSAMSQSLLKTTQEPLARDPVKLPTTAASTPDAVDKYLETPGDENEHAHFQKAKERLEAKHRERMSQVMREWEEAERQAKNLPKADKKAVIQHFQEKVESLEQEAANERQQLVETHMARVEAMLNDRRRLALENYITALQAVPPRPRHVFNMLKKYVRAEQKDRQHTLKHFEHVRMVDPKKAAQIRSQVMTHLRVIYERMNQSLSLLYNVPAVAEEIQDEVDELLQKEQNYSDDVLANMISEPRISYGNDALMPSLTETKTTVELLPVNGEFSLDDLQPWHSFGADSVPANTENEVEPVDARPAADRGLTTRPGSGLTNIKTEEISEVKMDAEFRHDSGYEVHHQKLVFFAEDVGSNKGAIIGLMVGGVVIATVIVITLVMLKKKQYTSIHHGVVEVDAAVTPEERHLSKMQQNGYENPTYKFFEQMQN

The target is the same in test [3]. Description: Disaggregation of amyloid beta (25 to 35 residues) (unknown origin) preformed fibrils at 5 ug/ml after 96 hrs to 9 days by ThT-based fluorescence spectroscopic method.
The target is the same in test [4]. Description: Inhibition of amyloid beta (25 to 35 residues) (unknown origin) aggregation at 5 ug/ml after 24 to 48 hrs by ThT-based fluorescence spectroscopic method.
For test [5] the target is unchanged. Description: Inhibition of amyloid beta (25 to 35 residues) (unknown origin)-induced toxicity in rat PC12 cells assessed as cell survival at 5 ug/ml after 1 to 3 weeks by clonogenic assay (reference value: 25%). The test is classed as cell-based.
Test [6] has the same target. Description: Inhibition of amyloid beta (25 to 35 residues) (unknown origin)-induced toxicity in rat PC12 cells assessed as protection against amyloid beta (25 to 35 residues)-induced apoptosis by measuring late apoptotic cells at 5 ug/ml by Annexin V-FITC/propidium iodide staining-based flow cytometric method (reference value: 4.56%). Details: scale not given: the % may be the effect or the level left. The test is classed as cell-based.

Test [7] has the same target. Description: Inhibition of amyloid beta (25 to 35 residues) (unknown origin)-induced toxicity in rat PC12 cells assessed as protection against amyloid beta (25 to 35 residues)-induced apoptosis by measuring necrotic cells at 5 ug/ml by Annexin V-FITC/propidium iodide staining-based flow cytometric method (reference value: 0.73%). It is filed as cell-based. Details: scale not given: the % may be the effect or the level left.

Test [8] has the same target. Description: Inhibition of amyloid beta (25 to 35 residues) (unknown origin)-induced toxicity in rat PC12 cells assessed as protection against amyloid beta (25 to 35 residues)-induced apoptosis by measuring viable cells at 5 ug/ml by Annexin V-FITC/propidium iodide staining-based flow cytometric method (reference value: 48.71%). The test is classed as cell-based.
Test [9] shares this target. Description: Disaggregation of amyloid beta (25 to 35 residues) (unknown origin) preformed fibrils at 5 ug/ml after 96 hrs to 9 days by phosphotungstic acid staining based transmission electron microscopy.
Test [10] has the same target. Description: Inhibition of amyloid beta (25 to 35 residues) (unknown origin)-induced toxicity in rat PC12 cells assessed as protection against amyloid beta (25 to 35 residues)-induced apoptosis by measuring early apoptotic cells at 5 ug/ml by Annexin V-FITC/propidium iodide staining-based flow cytometric method (reference value: 46%). It is filed as cell-based. Details: scale not given: the % may be the effect or the level left.

For test [11] the target is unchanged. Description: Disaggregation of amyloid beta (25 to 35 residues) (unknown origin) preformed fibrils at 5 ug/ml after 96 hrs to 9 days by thioflavin T dye based confocal laser scanning microscopy.
The target is the same in test [12]. Description: Inhibition of amyloid beta (25 to 35 residues) (unknown origin) aggregation at 5 ug/ml after 24 to 48 hrs by phosphotungstic acid staining based transmission electron microscopy.
Test [13] shares this target. Description: Disaggregation of amyloid beta (25 to 35 residues) (unknown origin) preformed fibrils at 5 ug/ml after 96 hrs to 9 days by FTIR spectroscopy.
For test [14] the target is unchanged. Description: Inhibition of amyloid beta (25 to 35 residues) (unknown origin) aggregation at 5 ug/ml after 24 to 48 hrs by thioflavin T dye based confocal laser scanning microscopy.
Test [15] has the same target. Description: Inhibition of amyloid beta (25 to 35 residues) (unknown origin) aggregation at 5 ug/ml after 24 to 48 hrs by FTIR spectroscopy.
The target is the same in test [16]. Description: Inhibition of amyloid beta (25 to 35 residues) (unknown origin)-induced toxicity in rat PC12 cells assessed as protection against amyloid beta (25 to 35 residues)-induced apoptosis by measuring necrotic cells at 50 ug/ml by Annexin V-FITC/propidium iodide staining-based flow cytometric method (reference value: 0.73%). Details: scale not given: the % may be the effect or the level left. It is filed as cell-based. To be noted: at 50 µg/mL.

For test [17] the target is unchanged. Description: Inhibition of amyloid beta (25 to 35 residues) (unknown origin)-induced toxicity in rat PC12 cells assessed as increase in cell viability at 50 ug/ml preincubated for 2 hrs followed by amyloid beta (25 to 35 residues) addition measured after 24 hrs by MTT dye based light microscopic assay (reference value: 48%). The note with it: at 50 µg/mL.
For test [18] the target is unchanged. Description: Inhibition of amyloid beta (25 to 35 residues) (unknown origin)-induced toxicity in rat PC12 cells assessed as protection against amyloid beta (25 to 35 residues)-induced apoptosis by measuring late apoptotic cells at 50 ug/ml by Annexin V-FITC/propidium iodide staining-based flow cytometric method (reference value: 4.56%). The test is classed as cell-based. The arrangement: scale not given: the % may be the effect or the level left. The note with it: at 50 µg/mL.

Test [19] has the same target. To be noted: at 50 µg/mL.
Description: Inhibition of amyloid beta (25 to 35 residues) (unknown origin)-induced toxicity in rat PC12 cells assessed as cell survival at 50 ug/ml after 1 to 3 weeks by clonogenic assay (Rvb = 25%)
Test [20] has the same target. Description: Inhibition of amyloid beta (25 to 35 residues) (unknown origin)-induced toxicity in rat PC12 cells assessed as protection against amyloid beta (25 to 35 residues)-induced apoptosis by measuring early apoptotic cells at 50 ug/ml by Annexin V-FITC/propidium iodide staining-based flow cytometric method (reference value: 46%). Details: scale not given: the % may be the effect or the level left. The test is classed as cell-based. To be noted: at 50 µg/mL.

Test [21] shares this target. Description: Inhibition of amyloid beta (25 to 35 residues) (unknown origin)-induced toxicity in rat PC12 cells assessed as protection against amyloid beta (25 to 35 residues)-induced apoptosis by measuring viable cells at 50 ug/ml by Annexin V-FITC/propidium iodide staining-based flow cytometric method (reference value: 48.71%). The test is classed as cell-based. The note with it: at 50 µg/mL.

Test [22] has the same target. Description: Disaggregation of amyloid beta (25 to 35 residues) (unknown origin) preformed fibrils at 50 ug/ml after 96 hrs to 9 days by ThT-based fluorescence spectroscopic method.
Test [23] shares this target. Description: Disaggregation of amyloid beta (25 to 35 residues) (unknown origin) preformed fibrils at 50 ug/ml after 96 hrs to 9 days by thioflavin T dye based confocal laser scanning microscopy.
Test [24] has the same target. Description: Disaggregation of amyloid beta (25 to 35 residues) (unknown origin) preformed fibrils at 50 ug/ml after 96 hrs to 9 days by FTIR spectroscopy.
For test [25] the target is unchanged. Description: Inhibition of amyloid beta (25 to 35 residues) (unknown origin) aggregation at 50 ug/ml after 24 to 48 hrs by FTIR spectroscopy.
Test [26] shares this target. Description: Inhibition of amyloid beta (25 to 35 residues) (unknown origin) aggregation at 50 ug/ml after 24 to 48 hrs by thioflavin T dye based confocal laser scanning microscopy.

Calls of active or inactive are those of the source. The calls are words filed in the database; no cut-off is given here. Some results are limits rather than exact numbers.

Chain of Acetylcholinesterase (P22303 whole entry, the tested form may be a part): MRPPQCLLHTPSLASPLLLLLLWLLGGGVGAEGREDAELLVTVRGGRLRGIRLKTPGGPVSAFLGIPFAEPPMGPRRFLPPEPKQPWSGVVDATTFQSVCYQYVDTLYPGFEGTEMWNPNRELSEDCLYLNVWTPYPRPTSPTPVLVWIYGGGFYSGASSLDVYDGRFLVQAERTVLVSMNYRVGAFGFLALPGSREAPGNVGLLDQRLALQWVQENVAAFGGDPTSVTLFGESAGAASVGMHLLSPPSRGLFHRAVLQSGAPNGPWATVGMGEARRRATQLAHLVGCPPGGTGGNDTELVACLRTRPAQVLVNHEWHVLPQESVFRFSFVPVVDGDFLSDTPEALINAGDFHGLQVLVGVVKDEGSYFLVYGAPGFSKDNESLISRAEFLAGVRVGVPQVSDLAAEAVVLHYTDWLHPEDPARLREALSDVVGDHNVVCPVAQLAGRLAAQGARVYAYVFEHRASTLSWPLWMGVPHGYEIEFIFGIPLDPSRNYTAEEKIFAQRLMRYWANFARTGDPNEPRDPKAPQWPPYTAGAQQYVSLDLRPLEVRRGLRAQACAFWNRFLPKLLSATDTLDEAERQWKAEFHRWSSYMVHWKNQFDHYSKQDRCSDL

For `CC(C)=CCC[C@@](C)(O)[C@H]1CC=C(C)CC1`, the IC50 in test [1] was < 45 µM. The Activity in [2] was > 80%; in test [6], 0.31%; in test [7], 0.62%; in [8], 97.8%; in test [10], 1.32%. For the same molecule, the outcome in [3], in [9], in [11] and in test [13] was Active. Moreover, the inhibition result in [4], in [12], in test [14] and in [15] was “Active” throughout. In [5], the Survival worked out at 96%.

Consider `COc1cc2c(cc1OC)C(=O)C(CC1CCN(Cc3ccccc3)CC1)C2` (stereo unspecified), for which the Activity in [16] was found to be 2%; in test [17] it was 81%; in test [18], 0.26%; in test [20], 1.58%; in [21] it was 96.2%. The molecule also had a Survival in test [19] of 96%.

Regarding `COc1ccc2c3c1O[C@H]1C[C@@H](O)C=C[C@@]31CCN(C)C2`, the outcome in [22], in test [23] and in test [24] was Active. Also, the inhibition entry in test [25] and in test [26] was “Active” throughout.
